Tests used:
[1] = Inhibition of hypoxia-induced HIF1alpha/P300-CBP interaction mediated gene transcriptional activity in human HeLa cells co-transfected with luciferase reporter plasmid containing HRE and pRL-CMV vector incubated for 12 hrs under hypoxic condition by HRE-dependent dual luciferase reporter gene assay; type: cell-based
DMS-114 = assay: Antiproliferative activity against human DMS-114 cells assessed as reduction in cell proliferation measured after 2 days by MTT assay; type: functional, cell-based; details: DMS-114, 48 h
HeLa [2] = assay: Antiproliferative activity against human HeLa cells assessed as reduction in cell proliferation measured after 48 hrs by MTT assay; type: functional, cell-based
HCT-116 = assay: Antiproliferative activity against human HCT-116 cells assessed as reduction in cell proliferation measured after 2 days by MTT assay; type: functional, cell-based; details: HCT-116, 48 h
HeLa [3] = assay: Cytotoxicity against human HeLa cells co-transfected with luciferase reporter plasmid containing HRE and pRL-CMV vector incubated for 12 hrs under hypoxic condition by MTT assay; type: cell-based

Row | Structure (SMILES) | IC50 [1] | IC50 (DMS-114) | IC50 (HeLa [2]) | IC50 (HCT-116) | IC50 (HeLa [3])
1 | OCc1ccc(-c2nn(Cc3ccccc3)c3ccccc23)o1 | 1 µM |  |  |  | 
2 | CC(C)CCN1C/C=C/CCN(CCCc2ccccc2)C(=O)CN[C@@H](C)C(=O)N[C@@H](CC(C)C)C1=O | 13.7 µM | 48.9 µM | 71.2 µM | 33.3 µM | > 50 µM
3 | CC(C)CCN1C/C=C/CN(CCCc2ccccc2)C(=O)CN[C@@H](C)C(=O)N[C@@H](CC(C)C)C1=O | 16.3 µM | 32.2 µM | 97.1 µM | 25.1 µM | > 50 µM
4 | CC(C)CCC(=O)N1C/C=C/CN(CCC(C)C)C(=O)[C@H](CC(C)C)NC(=O)[C@H](C)NC(=O)C1 | > 33 µM | > 90 µM | > 100 µM | > 90 µM | > 50 µM
5 | CC(C)CCC(=O)N1CCCCN(CCC(C)C)C(=O)[C@H](CC(C)C)NC(=O)[C@H](C)NC(=O)C1 | > 33 µM | > 90 µM | > 100 µM | 83.8 µM | > 50 µM
6 | CC(C)CCN1C/C=C/CN(CCCc2ccccc2)C(=O)CN2CCC[C@H]2C(=O)N[C@@H](CC(C)C)C1=O | 13.8 µM | 20.9 µM | 54 µM | 17.1 µM | > 50 µM
7 | CC(C)CCN1CCCCCN(CCCc2ccccc2)C(=O)CN[C@@H](C)C(=O)N[C@@H](CC(C)C)C1=O | 8.7 µM | 49 µM | 55.5 µM | 34.3 µM | > 50 µM
8 | CC(C)CCN1CCCCN(CCCc2ccccc2)C(=O)CN2CCC[C@H]2C(=O)N[C@@H](CC(C)C)C1=O | 9.5 µM | 17.3 µM | 66.4 µM | 12.3 µM | > 50 µM
9 | CC(C)CCN1CCCCN(CCCc2ccccc2)C(=O)CN[C@@H](C)C(=O)N[C@@H](CC(C)C)C1=O | 9.96 µM | 45 µM | 58.9 µM | 34.8 µM | > 50 µM
